Where “and” joins values, the source holds several entries; their conditions need not be identical. Identical values can stand only once. Like-named read-outs stand apart in the source and are kept apart here.

Experimental findings from patent US20240091200A1 (Lilac Therapeutics, Inc., priority 2019, published 2024) are described below.

One data set concerns the target Glycolate oxidase (GO) (Homo sapiens (Human), UniProt Q9UJM8). The experiment in a line: GO biochemical assay (Amplex Red, 384-well). Here is the method:
Amplex® Red Hydrogen Peroxide/Peroxidase Assay Kit (Catalog no. A22188) was purchased from Thermo Fisher (Waltham, MA).
The reaction was mixed and incubated at room temperature for 20 min followed by reading the plates by EnVision plate reader (Perkin Elmer, San Jose, CA) with excitation at 570 nm and emission 585 nm. […] The % inhibition as calculated as 100%×(Well-Negative)/(Positive-Negative)

Data set [1] can be described thus: Plasma pharmacokinetics after an oral dose of Example 2 in SD rats. The class given is in vivo, Sprague Dawley rats. The conditions noted are these: Example 2 in plasma, PO Example 2 5 mg/kg. Here is the method:
An oral dose of Example 2 was formulated in a sterile solution of 50% water, 37.5% PEG 300, and 12.5% DMSO at 1.0 mg/mL. The dosing group consisted of three fasted male Sprague Dawley rats. At dosing, the animals weighed between 0.26 and 0.27 kg. For the oral dosing group, the formulated dose was administered via oral gavage at 5.0 mL/kg for a dose of 5.0 mg/kg. Non-compartmental pharmacokinetic analysis was performed on the plasma concentration-time data.

Where [2] appears, read: male, Sprague Dawley, rat, plasma, po, 5 mg/kg, individual rats.
The mark [3] stands for this setting: male, Sprague Dawley, rat, plasma, po, 5 mg/kg, mean n=3.

Sequence of Glycolate oxidase (GO) (Q9UJM8 whole entry): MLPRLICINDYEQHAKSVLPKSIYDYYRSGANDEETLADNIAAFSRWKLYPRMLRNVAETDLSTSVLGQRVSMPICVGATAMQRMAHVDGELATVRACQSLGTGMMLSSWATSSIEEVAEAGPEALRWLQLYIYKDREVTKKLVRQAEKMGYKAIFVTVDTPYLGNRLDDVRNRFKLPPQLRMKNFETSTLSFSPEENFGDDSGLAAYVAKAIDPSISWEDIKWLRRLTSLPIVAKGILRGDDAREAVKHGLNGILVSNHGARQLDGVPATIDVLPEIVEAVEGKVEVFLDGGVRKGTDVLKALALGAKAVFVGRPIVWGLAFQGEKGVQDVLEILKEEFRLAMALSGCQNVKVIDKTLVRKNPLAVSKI

In the case of `Cc1cc(-c2ccc(-c3nn[nH]c3C(=O)O)cc2)ccc1Cl` [Example 91], the IC50 (in general, the point on the concentration scale where inhibition reaches its midpoint) against Glycolate oxidase (GO) came to 64.5 nM.
`O=C(O)c1[nH]nnc1-c1ccc(-c2ccc(-c3ccncc3)cc2)cc1` [Example 103]: on Glycolate oxidase (GO), the IC50 turned out to be 93.2 nM. The IC50 values of the last two molecules are within 1.5-fold of each other.
`COc1cc2ccc(-c3nn[nH]c3C(=O)O)cc2cn1` [Example 40, 4-(3-methoxyisoquinolin-7-yl)-1H-1,2,3-triazole-5-carboxylic acid] showed a half-inhibitory concentration (IC50) against Glycolate oxidase (GO) of 1000 nM.
Still for that read-out and setting: for `Cn1nnc(-c2ccc(F)c(Cl)c2)c1C(=O)O` [Example 150, 4-(3-chloro-4-fluorophenyl)-1-methyl-11H-1,2,3-triazole-5-carboxylic acid] the value was no less than 10000 nM; for `O=C(O)c1[nH]nnc1-c1ccc2c(c1)[nH]c1ccccc12` [Example 88, 4-(9H-carbazol-2-yl)-1H-1,2,3-triazole-5-carboxylic acid], 77.6 nM.
In the case of `CCOC(=O)c1[nH]nnc1-c1ccc(-c2ccc(C(N)=O)cc2)cc1` [Example 2, ethyl 4-(4carbamoyl-[1,1biphenyl]-4-yl)-1H-1,2,3-triazole-5-carboxylate], the AUC0-24 h in data set [1] (individual rats) is 1.55 µM·h and 1.85 µM·h. Further, the AUCinf in data set [1] (individual rats) was 1.57 µM·h and 1.9 µM·h; in data set [1] (mean n=3) it was 1.6 µM·h. Moreover, the Cmax (commonly the peak of the concentration-time curve) in data set [1] (individual rats) was 2530 nM and 2110 nM; in data set [1] (setting [2]), 2540 nM; in data set [1] (setting [3]), 2390 ± 246 nM. Besides, the Tmax (as a rule, the time from dosing to the highest level) in data set [1] (individual rats) worked out at 30 min; in data set [1] (male, Sprague Dawley, rat, plasma, po, 5 mg/kg, individual rats, read-out: Tmax), 15 min; in data set [1] (male, Sprague Dawley, rat, plasma, po, 5 mg/kg, mean n=3, read-out: Tmax) it was 19.8 min. Also, the total exposure AUC(0-inf) (in general, the area under the concentration-time curve extrapolated to infinity) was 1.34 µM·h in data set [1] (setting [2]) and 1.6 ± 0.28 µM·h in data set [1] (setting [3]). The AUC(0-t) in data set [1] (male, Sprague Dawley, rat, plasma, po, 5 mg/kg, individual rats, read-out: AUC0-24 h) amounted to 1.27 µM·h; in data set [1] (male, Sprague Dawley, rat, plasma, po, 5 mg/kg, mean n=3, read-out: AUC0-24 h), 1.56 µM·h. On Glycolate oxidase (GO), the concentration for half-maximal inhibition (IC50) came out at 1000 nM.
At Glycolate oxidase (GO), `O=C(O)c1[nH]nnc1-c1ccc(-c2ccc(-c3nc4ccccc4s3)cc2)cc1` [Example 122] came in with an IC50 of 10.7 nM.
Molecule `O=C(O)c1[nH]nnc1-c1ccc(-c2ccc(-c3c[nH]cn3)cc2)cc1` [Example 129] showed a half-maximal inhibitory concentration (IC50) against Glycolate oxidase (GO) of 24 nM.
As to `O=C(O)c1[nH]nnc1-c1ccc(-c2ccc(-c3ncco3)cc2)cc1` [Example 112], the concentration for half-maximal inhibition (IC50) at Glycolate oxidase (GO) is 37.5 nM.
For the molecule `O=C(O)c1n[nH]cc1-c1cccnc1` [Example 35, 4-(pyridin-3-yl)-1H-pyrazole-3-carboxylic acid], the half-maximal inhibitory concentration (IC50) against Glycolate oxidase (GO) is no less than 10000 nM.
Still for that read-out and setting: under `CC1(C)c2cc(-c3ccc(-c4nn[nH]c4C(=O)O)cc3)ccc2C(=O)N1CC(F)(F)F` [Example 153, 4-(4-(3,3-dimethyl-1-oxo-2-(2,2,2-trifluoroethyl)isoindolin-5-yl)phenyl)-1H-1,2,3-triazole-5-carboxylic acid] stands 119 nM; under `O=C(O)c1[nH]cnc1-c1cc(Cl)cc(Cl)c1` [Example 185, 4-(3,5-dichlorophenyl)-1H-imidazole-5-carboxylic acid], greater than 10000 nM.
With `CC(=O)N1CCC(c2ccc(-c3nn[nH]c3C(=O)O)cc2)CC1` [Example 163, 4-(4-(1-acetylpiperidin-4-yl)phenyl)-1H-1,2,3-triazole-5-carboxylic acid], on Glycolate oxidase (GO), the IC50 amounted to 1000 nM.
Still for that read-out and setting: under `CC(=O)N1CC=C(c2ccc(-c3nn[nH]c3C(=O)O)cc2)CC1` [Example 162, 4-(4-(1-acetyl-1,2,3,6-tetrahydropyridin-4-yl)phenyl)-1H-1,2,3-triazole-5-carboxylic acid] stands 88.2 nM; under `O=C(O)c1[nH]ncc1-c1ccc2c(c1)C(F)(F)c1cc(-c3c[nH]nn3)ccc1-2` [Example 170, 4-(9,9-difluoro-7-(1H-1,2,3-triazol-4-yl)-9H-fluoren-2-yl)-1H-pyrazole-5-carboxylic acid], 16.5 nM; under `O=C(O)c1[nH]nnc1-c1cccc(F)c1` [Example 8, 4-(3-fluorophenyl)-1H-1,2,3-triazole-5-carboxylic acid], 1310 nM.
At Glycolate oxidase (GO), `CCOC(=O)c1[nH]nnc1-c1ccc(-c2ccc(Cl)cc2)cc1` [Example 1] came in with a 50% inhibitory concentration (IC50) of 1000 nM.
On the same count and under the same terms, for `O=C(O)c1[nH]nnc1-c1ccc2c(c1)OC(F)(F)O2` [Example 29, 4-(2,2-difluorobenzo[d][1,3]dioxol-5-yl)-1H-1,2,3-triazole-5-carboxylic acid] the value was 330 nM.
Molecule `O=C(O)c1[nH]nnc1-c1ccc(-c2cccc(S(=O)(=O)N3CCOCC3)c2)cc1` [Example 75] returned a 50% inhibitory concentration (IC50) at Glycolate oxidase (GO) of 18.6 nM.
The same measure, in the same setting: under `O=C(O)c1[nH]nnc1-c1ccc(-c2ccc(Cl)c(S(=O)(=O)N3CCOCC3)c2)cc1` [Example 146] stands 33.6 nM; under `Cc1ccc(-c2ccc(-c3nn[nH]c3C(=O)O)cc2)cc1` [Example 53], 377 nM.
Still for that read-out and setting: for `O=C(O)c1[nH]nnc1-c1ccc(-c2ccc(OC(F)(F)F)cc2)cc1` [Example 55] the value was 563 nM; for `CC(C)(C)c1ccc(-c2ccc(-c3nn[nH]c3C(=O)O)cc2)cc1` [Example 54], 4300 nM; for `O=C(O)c1[nH]nnc1-c1ccc(-c2ccc(-c3cnn[nH]3)cc2)cc1` [Example 127], 4.14 nM.
On the same count and under the same terms, for `O=C(O)c1[nH]nnc1-c1ccc(-c2ccc(S(=O)(=O)N3CCCCC3)cc2)cc1` [Example 79] the value was 244 nM.
Molecule `O=C(O)c1[nH]nnc1-c1ccc(-c2cccc(-c3ccccc3)c2)cc1` [Example 99, 4-([1,131terphenyl]-4-yl)-1H-1,2,3-triazole-5-carboxylic acid] had a 50% inhibitory concentration (IC50) against Glycolate oxidase (GO) of 408 nM.
Consider `O=C(O)c1[nH]nnc1-c1ccc(Cl)c(Cl)c1` [Example 19, 4-(3,4-dichlorophenyl)-1H-1,2,3-triazole-5-carboxylic acid], for which the half-inhibitory concentration (IC50) against Glycolate oxidase (GO) worked out at 196 nM.
Same read-out and setting: for `Cn1nnc(C(=O)O)c1-c1ccc(F)c(Cl)c1` [Example 17, 5-(3-chloro-4-fluorophenyl)-1-methyl-1H-1,2,3-triazole-4-carboxylic acid] the value was no less than 10000 nM; for `N#Cc1cccc(-c2nn[nH]c2C(=O)O)c1` [Example 12], 130 nM; for `Cc1[nH]nnc1-c1ccc(-c2ccc(-c3nn[nH]c3C(=O)O)cc2)cc1` [Example 131], 4.67 nM.
With `O=C(O)c1[nH]nnc1C#Cc1ccc(Cl)cc1` [Example 160, 4-((4-chlorophenyl)ethynyl)-1H-1,2,3-triazole-5-carboxylic acid], the IC50 against Glycolate oxidase (GO) came out at 226 nM.
On Glycolate oxidase (GO), `Cc1ccc(-c2nn[nH]c2C(=O)O)cc1` [Example 5, 4-(p-tolyl)-1H-1,2,3-triazole-5-carboxylic acid] yielded a concentration for half-maximal inhibition (IC50) of no less than 10000 nM.
Same read-out and setting: under `O=C(O)c1[nH]nnc1-c1ccc2c(c1)oc1ccccc12` [Example 87, 4-(dibenzo[b,d]furan-3-yl)-1H-1,2,3-triazole-5-carboxylic acid] stands 23.8 nM; under `CN(C)C(=O)c1cccc(-c2ccc(-c3nn[nH]c3C(=O)O)cc2)c1` [Example 143], 1000 nM.
`O=C(O)c1[nH]nnc1-c1ccc(-c2ccc(-c3cn[nH]c3)cc2)cc1` [Example 124]: on Glycolate oxidase (GO), inhibition was half-maximal at 16.1 nM (IC50).
`O=C(O)c1[nH]nnc1-c1ccc(-c2ccc(N3CCCC3=O)cc2)cc1` [Example 83]: it took 136 nM to reach half-maximal inhibition against Glycolate oxidase (GO) (IC50). This IC50 is about 8.4-fold higher than that of the molecule before.
Regarding `O=C(O)c1[nH]nnc1-c1ccccn1` [Example 139, 4-(pyridin-2-yl)-1H-1,2,3-triazole-5-carboxylic acid], the IC50 on Glycolate oxidase (GO) was no less than 10000 nM.
Consider `Cc1cnc(-c2ccc(-c3ccc(-c4nn[nH]c4C(=O)O)cc3)cc2)s1` [Example 109], for which the concentration for half-maximal inhibition (IC50) on Glycolate oxidase (GO) was determined as 22.7 nM.
In the case of `O=C(O)c1c[nH]nc1-c1cc(Cl)cc(Cl)c1` [Example 183, 3-(3,5-dichlorophenyl)-1H-pyrazole-4-carboxylic acid], the half-inhibitory concentration (IC50) against Glycolate oxidase (GO) was greater than 10000 nM.
Still for that read-out and setting: for `O=C(O)c1[nH]nnc1-c1ccc(-c2ccc(N3CCOCC3)cc2)cc1` [Example 84] the value was 1000 nM; for `O=C(O)c1[nH]ncc1-c1ccccn1` [Example 140, 4-(pyridin-2-yl)-1H-pyrazole-5-carboxylic acid], no less than 10000 nM.
Still for that read-out and setting: for `O=C(O)c1[nH]nnc1-c1cscn1` [Example 141, 4-(thiazol-4-yl)-1H-1,2,3-triazole-5-carboxylic acid] the value was no less than 10000 nM; for `O=C(O)c1[nH]cnc1-c1ccc(F)c(Cl)c1` [Example 184, 4-(3-chloro-4-fluorophenyl)-1H-imidazole-5-carboxylic acid], greater than 10000 nM.
Consider `Cc1ccccc1-c1nn[nH]c1C(=O)O` [Example 3, 4-(o-tolyl)-1H-1,2,3-triazole-5-carboxylic acid], for which the IC50 at Glycolate oxidase (GO) was no less than 10000 nM.
On the same count and under the same terms, under `Cc1cc(-c2ccc(-c3ccc(-c4nn[nH]c4C(=O)O)cc3)cc2)nn1C` [Example 117] stands 19.7 nM.
Molecule `O=C(O)c1[nH]nnc1-c1cccc(Cl)c1F` [Example 22, 4-(3-chloro-2-fluorophenyl)-1H-1,2,3-triazole-5-carboxylic acid] displayed an IC50 against Glycolate oxidase (GO) of 159 nM.
The same measure, in the same setting: under `NS(=O)(=O)c1ccc(-c2ccc(-c3nn[nH]c3C(=O)O)cc2)cc1` [Example 77] stands 94.6 nM; under `O=C(O)c1c[nH]nc1-c1ccc(F)c(Cl)c1` [Example 182, 3-(3-chloro-4-fluorophenyl)-1H-pyrazole-4-carboxylic acid], greater than 10000 nM.
